Results taken from patent publication US11071727B2, “Therapeutic targeting of proteolytic cleavage of the mixed lineage leukemia gene product (MLL1) by taspase1 using kinase inhibitors” (Northwestern University, priority 2018, dated 2021).

Tests used:
[1] = tested on: JUP and SLC43A2 mRNA; experiment: mRNA levels of JUP and SLC43A2 genes in SEM cells; format: cell-based, human
Procedure: RNA-seq Analysis. Gene count tables were constructed using HTseq (Anders et al. 2015) with Ensembl gene annotations and used as input for edgeR 3.0.8 (Robinson et al. 2010). Genes with Benjamini-Hochburg adjusted p-values less than 0.01 were considered to be differentially expressed. GO enrichment analysis was evaluated by the MetaScape online software suite (Tripathi et al. 2015).

[2] = tested on: MLL-AFF1, AFF4 and ELL2 occupancy; experiment: ChIP-seq of MLL-AFF1, AFF4 and ELL2 occupancy in SEM cells; format: cell-based, human
Procedure: FIG. 6. CKII inhibition increases genome-wide MLL occupancy and excludes SEC recruitment in MLL leukemia cells. (A) and (B) MLL1C occupancy in CX-4945 or TTP22 treated cells were shown relative to DMSO control. […] (C) Track examples of the MLL1 occupancy at the promoter regions of ELF2 and C6orf211. (D) CX-4945 inhibition of leukemia cell proliferation. Multiple MLL leukemia (orange lines) and non-MLL leukemia (blue lines) were cultured with different doses of CX-4945 for 3 days. Cell number was determined by cell counter and normalized to DMSO control. (E) SEM cells were treated with 0, 5 or 10 μM of CX-4945 for 30 hours and western blot was performed to determine the MLL1 full-length protein levels and MLL-AF4 fusion protein levels. (F) MLL-AFF1, AFF4 and ELL2 occupancies were decreased by CX-4945 treatment in SEM cells.
ChIP-seq Analysis. 5×10^7 cells were used for each ChIP assay, as performed as previously described (Chen et al. 2015). Peaks were called with MACS v1.4.2 (Zhang et al. 2008) using default parameters and were annotated by the HOMER software (Heinz et al. 2010). Metaplots were generated using ngsplot (Shen et al. 2014). […] Differential occupancy of MLL1 was evaluated by edgeR, and peaks with Benjamini-Hochburg adjusted p-values less than 0.05 were considered to be differentially occupied. […]

[3] = tested on: MLL-AF9 leukemia; experiment: MLL-AF9 syngeneic leukemia mouse model; format: in vivo
Procedure: FIG. 7. CKII inhibition delays the leukemia progression and improves survival of MLL-AF9 mice and MOLM13 human leukemia mice. (A) Timeline of the MLL-AF9 leukemia mouse model and CKII inhibitor treatment. Drug treatments were started at day 10 after transplantation. (B) Kaplan-Meier survival curves of secondary transplanted C57BL/6 mice after vehicle and CX-4945 treatment at day 10. Vehicle or CX-4945 (50 mg/kg or 75 mg/kg) were administered twice daily by oral gavage for a total of twenty treatments. Leukemia was confirmed at the endpoint for each transplant mouse. The number (n) indicates the number of mice in each group. The p values were calculated using the log rank test. (C) Timeline of the MOLM13 human leukemia xenograft mice. Drug treatments were started at day 5 after transplantation. (D) Kaplan-Meier survival curves of NSGS mice after vehicle and CX-4945 treatment. Vehicle or CX-4945 (50 mg/kg) were administered twice daily by oral gavage for a total of twenty treatments. Leukemia was confirmed at the endpoint for each transplant mouse by flow cytometry, H&E staining and histology analysis. The number (n) indicates the number of mice in each group. The p value was calculated using the log rank test. (E) Taspase1 cleavage regulation of MLL1 mediated by CKII phosphorylation. MLL1 cleavage by taspase1 primed the protein to degradation pathway. […]

With `O=C(O)c1ccc2c(c1)nc(Nc1cccc(Cl)c1)c1ccncc12` [CX-4945, 5-(3-chlorophenylamino)benzo[c][2,6]naphthyridine-8-carboxylic acid] the “mRNA levels of JUP and SLC43A2 genes” value [1] was “decrease of mRNA levels”, the “genome-wide binding of MLL-AFF1, AFF4 and ELL2” value [2] was “decrease” and the “leukemia progression and survival” value ([3]; C57BL/6 mice, 50 mg/kg or 75 mg/kg twice daily by oral gavage, twenty treatments from day 10) was “significantly delayed the leukemia progression and improved the survival”. For the same compound, the “weight of the mice” value ([3]; MLL-AF9 syngeneic mouse model, compared with vehicle control group) was “did not affect the weight of the mice”.
